# Measurements taken from US20130303509A1, “NAMPT INHIBITORS” (AbbVie Inc., priority 2012, published 2013).
# Test system: PC3 cells
# Experiment: NAMPT Cell Proliferation Assay
# Type: cell-based
# Conditions: Homo sapiens, PC-3, 120 h, 5 days incubation, cell viability by Cell Titer Glo
# In short: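 Seeded at 500 cells/well in RPMI with 10% heat-inactivated FBS and left to attach overnight at 37° C, 5% CO2. Compounds were added as 10-fold dilutions […] for 5 days, then viability was read by CellTiter-Glo. IC50s came from sigmoidal fits of percent inhibition.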
row,SMILES,IC50
1,"CSCCC(=O)N1CCC(c2ccc(NC(=O)[C@H]3CCN(c4cccnn4)C3)cc2)CC1 [Example 715, (3S)-N-(4-{1-[3-(methylsulfanyl)propanoyl]piperidin-4-yl}phenyl)-1-(pyridazin-3-yl)pyrrolidine-3-carboxamide]",11.8 nM
2,"O=C(Nc1ccc(O[C@@H]2CCN(C(=O)Cc3cc(F)cc(F)c3)C2)cc1)C1CN(c2ccnnc2)C1 [Example 450, N-[4-({(3R)-1-[(3,5-difluorophenyl)acetyl]pyrrolidin-3-yl}oxy)phenyl]-1-(pyridazin-4-yl)azetidine-3-carboxamide]",50.9 nM
3,"CCC(CC)C(=O)N1CCC(c2ccc(NC(=O)C3CN(c4ccc(F)nn4)C3)cc2)CC1 [Example 822, N-{4-[1-(2-ethylbutanoyl)piperidin-4-yl]phenyl}-1-(6-fluoropyridazin-3-yl)azetidine-3-carboxamide]",60.5 nM
4,"COCCOCC(=O)N1CCC(c2ccc(NC(=O)C3CN(c4cccnc4C)C3)cc2)CC1 [Example 183, N-(4-{1-[(2-methoxyethoxy)acetyl]piperidin-4-yl}phenyl)-1-(2-methylpyridin-3-yl)azetidine-3-carboxamide]",346 nM
5,"O=C(Nc1ccc(C2CCN(C(=O)c3ccc(O)cc3)CC2)cc1)C1CN(c2cccnn2)C1 [Example 344, N-{4-[1-(4-hydroxybenzoyl)piperidin-4-yl]phenyl}-1-(pyridazin-3-yl)azetidine-3-carboxamide]",8.9 nM
6,"Cc1cccc(C(=O)N2CCC(c3ccc(NC(=O)[C@H]4CCN(c5cccnn5)C4)cc3)CC2)c1 [Example 677, (3S)-N-{4-[1-(3-methylbenzoyl)piperidin-4-yl]phenyl}-1-(pyridazin-3-yl)pyrrolidine-3-carboxamide]",9.3 nM
7,"CC(C)(C)C(=O)N1CCC(c2ccc(NC(=O)[C@@H]3CCN(c4cccnn4)C3)cc2)CC1 [Example 795, (3R)—N-{4-[1-(2,2-dimethylpropanoyl)piperidin-4-yl]phenyl}-1-(pyridazin-3-yl)pyrrolidine-3-carboxamide]",773 nM
8,"CC(C)(C)OC(=O)N1CCC(Oc2ccc(C(=O)N[C@H]3CCN(c4cccnc4)C3)cc2)CC1 [Example 27, tert-butyl 4-(4-{[(3S)-1-(pyridin-3-yl)pyrrolidin-3-yl]carbamoyl}phenoxy)piperidine-1-carboxylate]",> 10000 nM
9,"CC(C)(C)CC(=O)N1CC(Oc2ccc(NC(=O)C3CN(c4ccnnc4)C3)cc2)C1 [Example 254, N-(4-{[1-(3,3-dimethylbutanoyl)azetidin-3-yl]oxy}phenyl)-1-(pyridazin-4-yl)azetidine-3-carboxamide]",12 nM
10,"Cc1ccc(C(=O)N2CCC(c3ccc(NC(=O)[C@H]4CCN(c5cccnn5)C4)cc3)CC2)cc1 [Example 631, (3S)-N-{4-[1-(4-methylbenzoyl)piperidin-4-yl]phenyl}-1-(pyridazin-3-yl)pyrrolidine-3-carboxamide]",9.58 nM
11,"Cc1ncccc1N1CC(C(=O)Nc2ccc(C3CCN(C(=O)CN4CCN(C)CC4)CC3)cc2)C1 [Example 173, N-(4-{1-[(4-methylpiperazin-1-yl)acetyl]piperidin-4-yl}phenyl)-1-(2-methylpyridin-3-yl)azetidine-3-carboxamide]",627 nM
12,"CC[C@H](C)C(=O)N1CCC(Oc2ccc(NC(=O)C3CN(c4ccnnc4)C3)cc2)CC1 [Example 307, N-[4-({1-[(2S)-2-methylbutanoyl]piperidin-4-yl}oxy)phenyl]-1-(pyridazin-4-yl)azetidine-3-carboxamide]",20.8 nM
13,"Cc1ncccc1N1CC[C@H](C(=O)Nc2ccc(C3CCN(C(=O)c4ccccc4)CC3)cc2)C1 [Example 743, (3S)—N-[4-(1-benzoylpiperidin-4-yl)phenyl]-1-(2-methylpyridin-3-yl)pyrrolidine-3-carboxamide]",6620 nM
14,"Cc1ncccc1N1CC(C(=O)Nc2ccc(C3CCN(C(=O)CC(C)C)CC3)cc2)C1 [Example 197, N-{4-[1-(3-methylbutanoyl)piperidin-4-yl]phenyl}-1-(2-methylpyridin-3-yl)azetidine-3-carboxamide]",103 nM
15,"O=C(Nc1ccc(OC2CCN(CCC3CC3)CC2)cc1)C1CN(c2cccnc2)C1 [Example 82, N-(4-{[1-(2-cyclopropylethyl)piperidin-4-yl]oxy}phenyl)-1-(pyridin-3-yl)azetidine-3-carboxamide]",9.55 nM

# Stronger by IC50, values ahead:
row,IC50,SMILES
1,1.99 nM,"COc1ccccc1C(=O)N1CCC(c2ccc(NC(=O)C3CN(c4cccnn4)C3)cc2)CC1 [Example 345, N-{4-[1-(2-methoxybenzoyl)piperidin-4-yl]phenyl}-1-(pyridazin-3-yl)azetidine-3-carboxamide]"
2,8.56 nM,"O=C(Nc1ccc(C2CCN(C(=O)c3ccccc3F)CC2)cc1)C1CN(c2ccc(F)nn2)C1 [Example 819, N-{4-[1-(2-fluorobenzoyl)piperidin-4-yl]phenyl}-1-(6-fluoropyridazin-3-yl)azetidine-3-carboxamide]"
3,7.17 nM,"Cc1ccc(C(=O)N2CCC(c3ccc(NC(=O)C4CN(c5cccnn5)C4)cc3)CC2)cc1F [Example 389, N-{4-[1-(3-fluoro-4-methylbenzoyl)piperidin-4-yl]phenyl}-1-(pyridazin-3-yl)azetidine-3-carboxamide]"
4,0.32 nM,"O=C(Nc1ccc(O[C@@H]2CCN(C(=O)c3ccccc3F)C2)cc1)C1CN(c2cccnn2)C1 [Example 514, N-(4-{[(3R)-1-(2-fluorobenzoyl)pyrrolidin-3-yl]oxy}phenyl)-1-(pyridazin-3-yl)azetidine-3-carboxamide]"
5,3.76 nM,"CC(C)(C)CC(=O)N1CCC(Oc2ccc(NC(=O)C3CN(c4cccnc4)C3)cc2)CC1 [Example 41, N-(4-{[1-(3,3-dimethylbutanoyl)piperidin-4-yl]oxy}phenyl)-1-(pyridin-3-yl)azetidine-3-carboxamide]"
6,1.11 nM,"C#CCCC(=O)N1CCC(c2ccc(NC(=O)C3CN(c4cccnn4)C3)cc2)CC1 [Example 338, N-{4-[1-(pent-4-ynoyl)piperidin-4-yl]phenyl}-1-(pyridazin-3-yl)azetidine-3-carboxamide]"
7,3.61 nM,"CC(C)(C)CC(=O)N1CCC(c2ccc(NC(=O)C3CN(c4ccnnc4)C3)c(F)c2)CC1 [Example 871, N-{4-[1-(3,3-dimethylbutanoyl)piperidin-4-yl]-2-fluorophenyl}-1-(pyridazin-4-yl)azetidine-3-carboxamide]"
8,8.63 nM,"O=C(Nc1ccc(C2CCN(C(=O)c3ccc(Cl)c(Cl)c3)CC2)cc1)C1CN(c2cccnn2)C1 [Example 364, N-{4-[1-(3,4-dichlorobenzoyl)piperidin-4-yl]phenyl}-1-(pyridazin-3-yl)azetidine-3-carboxamide]"
9,7.15 nM,"N#Cc1ccc(C(=O)N2CCC(c3ccc(NC(=O)C4CN(c5cccnn5)C4)cc3)CC2)cc1 [Example 353, N-{4-[1-(4-cyanobenzoyl)piperidin-4-yl]phenyl}-1-(pyridazin-3-yl)azetidine-3-carboxamide]"
10,6.73 nM,"O=C(Nc1ccc(O[C@@H]2CCN(C(=O)c3ccc(F)c(F)c3)C2)cc1)C1CN(c2cccnn2)C1 [Example 493, N-(4-{[(3R)-1-(3,4-difluorobenzoyl)pyrrolidin-3-yl]oxy}phenyl)-1-(pyridazin-3-yl)azetidine-3-carboxamide]"
11,2.2 nM,"Cc1c(F)cccc1C(=O)N1CCC(c2ccc(NC(=O)C3CN(c4cccnn4)C3)cc2)CC1 [Example 387, N-{4-[1-(3-fluoro-2-methylbenzoyl)piperidin-4-yl]phenyl}-1-(pyridazin-3-yl)azetidine-3-carboxamide]"
12,5.46 nM,"O=C(Nc1ccc(C2CCN(C(=O)Cc3cccc(F)c3)CC2)cc1)C1CN(c2ccnnc2)C1 [Example 534, N-(4-{1-[(3-fluorophenyl)acetyl]piperidin-4-yl}phenyl)-1-(pyridazin-4-yl)azetidine-3-carboxamide]"
13,8.61 nM,"O=C(Nc1ccc(O[C@@H]2CCN(C(=O)c3cccs3)C2)cc1)C1CN(c2ccnnc2)C1 [Example 469, 1-(pyridazin-4-yl)-N-(4-{[(3R)-1-(thiophen-2-ylcarbonyl)pyrrolidin-3-yl]oxy}phenyl)azetidine-3-carboxamide]"
14,2.02 nM,"O=C(Nc1ccc(C2CCN(C(=O)c3cccc(F)c3F)CC2)cc1)[C@H]1CCN(c2cccnn2)C1 [Example 676, (3S)-N-{4-[1-(2,3-difluorobenzoyl)piperidin-4-yl]phenyl}-1-(pyridazin-3-yl)pyrrolidine-3-carboxamide]"
15,1.05 nM,"O=C(Nc1ccc(O[C@@H]2CCN(C(=O)Cc3cccc(F)c3)C2)cc1)C1CN(c2cccnn2)C1 [Example 494, N-[4-({(3R)-1-[(3-fluorophenyl)acetyl]pyrrolidin-3-yl}oxy)phenyl]-1-(pyridazin-3-yl)azetidine-3-carboxamide]"
16,0.79 nM,"CC(C)(C(=O)N1CC[C@@H](Oc2ccc(NC(=O)C3CN(c4cccnn4)C3)cc2)C1)c1ccccc1 [Example 508, N-(4-{[(3R)-1-(2-methyl-2-phenylpropanoyl)pyrrolidin-3-yl]oxy}phenyl)-1-(pyridazin-3-yl)azetidine-3-carboxamide]"
17,1.44 nM,"O=C(Nc1ccc(C2CCN(C(=O)CCN3CCOCC3)CC2)cc1)C1CN(c2cccnc2)C1 [Example 124, N-(4-{1-[3-(morpholin-4-yl)propanoyl]piperidin-4-yl}phenyl)-1-(pyridin-3-yl)azetidine-3-carboxamide]"
18,0.4 nM,"CCOCCC(=O)N1CCC(c2ccc(NC(=O)C3CN(c4cccnc4)C3)cc2)CC1 [Example 115, N-{4-[1-(3-ethoxypropanoyl)piperidin-4-yl]phenyl}-1-(pyridin-3-yl)azetidine-3-carboxamide]"
19,6.67 nM,"O=C(Nc1ccc(C2CCN(C(=O)c3ccc(F)cc3F)CC2)cc1F)C1CN(c2cccnn2)C1 [Example 833, N-{4-[1-(2,4-difluorobenzoyl)piperidin-4-yl]-2-fluorophenyl}-1-(pyridazin-3-yl)azetidine-3-carboxamide]"
20,7.25 nM,"Cc1ccccc1C(=O)N1CCC(c2ccc(NC(=O)C3CN(c4cccnn4)C3)c(F)c2)CC1 [Example 831, N-{2-fluoro-4-[1-(2-methylbenzoyl)piperidin-4-yl]phenyl}-1-(pyridazin-3-yl)azetidine-3-carboxamide]"
